# Laboratory results published in patent US20250236607A1, “CYCLIN-DEPENDENT KINASE 9 (CDK9) DEGRADERS AND METHODS OF USING THEREOF” (OHIO STATE INNOVATION FOUNDATION, priority 2022, published 2025).
# Read-outs that look alike come from different tables or passages of the source.
# Assays:
# MV411 cells [1] = test: MTS cytotoxicity assay against MV411 cells; assay type: cell-based
# Experimental: (§1) The obtained compounds were tested in biological experiments to measure their potency in inhibiting the growth of AML cells and in their degradation of CDK9. These measurements are reported as half-maximum growth inhibitory and half-maximum degradation concentrations, IC50s and DC50s, respectively. Maximum percent degradation (Dmax) values were also obtained during the CDK9 degradation assessments. The common MTS assay was used to acquire the IC50 values, while the DC50 values were obtained using an automated western blot experiment. These values are presented in Table 2, along with pIC50 (log(nM IC50)) to more accurately reflect the differences/lack thereof in in vitro cytotoxicity. The notation “N:N*” represents the number of linker atoms on each side of the rigid triazole ring for a given degrader. Predicted log D values, calculated using the ChemAxon […], are also provided for each degrader. To characterize the physicochemical properties of the new degrader series, two additional assays were performed: a kinetic aqueous solubility assay and the chromatographic log D experiment described earlier. Aqueous solubility is shown in μM while experimentally determined log D is shown as log k′80. Details regarding the execution of each experiment are provided below.
# CDK9 [2] = target: T1, CDK9 (Homo sapiens, UniProt P50750+Q96SW2); test: CDK9 degradation, automated western blot, triazole-containing AT7519 degraders (MV411); assay type: cell-based; conditions: for DC50: CDK9 degradation, MV411 cells; for Dmax (%) / Dmax: maximum percent CDK9 degradation; for Dmax: MV4-11
# T1 construct: endogenous in cells
# Experimental: as §1
# [3] = Chromatographic log D determination (log k′80); assay type: physicochemical; conditions: for logk′80: chromatographic log D, PLRP-S column, pH 7.72
# Outline: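 Samples were diluted from DMSO stock to 122 μM in acetonitrile and run on a PLRP-S column in 20:80 aqueous ammonium acetate/acetonitrile, pH 7.72, at 1 mL/min with UV detection at 337 nm. log k′80 used a fixed 0.3 min dead time derived from a five-compound standard set. Runs were done in triplicate.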
# [4] = pH 7.4
# Experimental: (§2) Kinetic Solubility Assay. Kinetic solubility (KS) was measured according to Millipore protocol PC2445 EN00. Test compounds were weighed and diluted with DMSO to 10 mM. From the stock solutions as well as blank (100% DMSO) was taken 17.5 μL and diluted to 500 μM with 332.5 μL of 100 mM phosphate Buffered Saline (PPBS) at pH 7.4 in a 96-well quartz plate. From the 500 μM solutions was taken 150 μL and dispensed into a 96-well Millipore filter plate (Product number: MSSLBPC10). In the quartz plate, serial dilutions were performed down to 0.5 μM using the 100 mM PBS solution, leaving 100 μL of each test sample at 11 different concentrations, representing standards. These steps were performed in triplicate, at minimum, for each test compound. Both plates were shaken on an orbital shaker at 150 rpm for 1.5 hours. The contents of the filter plate were filtered and 100 μL of the filtrate from each well was dispensed into the quartz plate containing standards. The quartz plate was then analyzed using a UV plate reader where absorbance was measured at the relevant wavelength for each compound. After blank subtraction, for each test sample, solubility was determined based on the optical density of filtered samples and the equations derived from the corresponding linear standard curve.
# MV411 cells [5] = test: Cellular potency in human serum versus fetal bovine serum, MV411; assay type: cell-based
# Excerpt: FIGS. 3A-3C. In vitro cellular potency (against MV411 cells) in human serum (HS) versus fetal bovine serum (FBS) for compounds 4.7b (FIG. 3A) 4.9c (FIG. 3B), and 4,8a (FIG. 3C).
# This contrasts with 4.8a, which loses its potency by almost 20-fold in human serum (FIG. 3C).
# CDK9 [6] = test: In vivo CDK9 degradation in mice; conditions: preliminary study, AML-xenografted mice
# Experimental: Both degraders were able to degrade CDK9 at low nanomolar concentrations. […] Moreover, dissolution of the test compounds in the 10 mM phosphate buffered saline (PBS) media was very difficult. Solvents, such as dimethylsulfoxide (DMSO), polyethylene glycol and Tween 80©, had to be added in generous quantities to the PBS vehicle to facilitate solubility of the test compounds and allow for the preliminary in vivo assessment that led to the conclusion of inactivity in mice. Significant toxicity, in the form of death and inflammation at the injection site, was also observed due to the inclusion of these additives in the PBS vehicle.
# Kinetic solubility assay = conditions: kinetic solubility, PBS pH 7.4; for solubility at 1.5 h: phosphate buffered saline, pH 7.4, aqueous buffer, kinetic from dmso stock, Solubility (μM)
# Experimental: as §2
# AML cells = test: Drug washout experiment (cytotoxicity); assay type: cell-based; conditions: 6 h drugging, 48 h total
# Experimental: To better evaluate the catalytic mechanism of action of this degrader series, a drug washout (WO) experiment was performed. This experiment involved the drugging of cells for six hours after which the cell media was replaced with a drug-free batch.
# MOLM13 cells [7] = test: Cytotoxicity against MOLM13 cells; assay type: cell-based; conditions: Homo sapiens, MOLM-13, cytotoxicity, MOLM13 cells; read-out: IC50
# CDK9 [8] = target: T1, CDK9; test: CDK9 degradation potency (DC50) of VIP152-based degraders; assay type: cell-based; conditions: VIP152-based series
# MOLM13 cells [9] = test: Protein shift experiment, cytotoxicity in FBS vs human serum, MOLM13; assay type: cell-based; conditions: MOLM-13
# Excerpt: In order to determine the suitability of the lead compounds for advanced biological studies, the four degraders (4.49, 4.62, 4.72 and 4.78) were selected for a protein-shift analysis due to their higher potency and solubility.
# [10] = growth inhibition, MV411 cells, MTS, read-out: IC50
# [11] = Homo sapiens, MV4-11, defined as log(nM IC50), MV411, read-out: pIC50 (converted)
# [12] = Homo sapiens, MV4-11, growth inhibition, MV411 cells, MTS, read-out: IC50
# T1 sequence (P50750 whole entry): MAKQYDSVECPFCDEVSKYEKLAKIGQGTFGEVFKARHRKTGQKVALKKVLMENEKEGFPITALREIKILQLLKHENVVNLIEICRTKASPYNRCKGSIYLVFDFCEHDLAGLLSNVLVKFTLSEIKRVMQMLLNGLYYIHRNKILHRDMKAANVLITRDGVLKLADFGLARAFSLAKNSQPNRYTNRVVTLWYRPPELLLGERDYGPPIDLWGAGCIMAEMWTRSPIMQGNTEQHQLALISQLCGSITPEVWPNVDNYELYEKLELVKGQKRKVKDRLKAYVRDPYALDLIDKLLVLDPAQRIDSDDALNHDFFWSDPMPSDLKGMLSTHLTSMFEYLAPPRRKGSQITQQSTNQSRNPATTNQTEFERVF
# T1 sequence (O60563 whole entry partner): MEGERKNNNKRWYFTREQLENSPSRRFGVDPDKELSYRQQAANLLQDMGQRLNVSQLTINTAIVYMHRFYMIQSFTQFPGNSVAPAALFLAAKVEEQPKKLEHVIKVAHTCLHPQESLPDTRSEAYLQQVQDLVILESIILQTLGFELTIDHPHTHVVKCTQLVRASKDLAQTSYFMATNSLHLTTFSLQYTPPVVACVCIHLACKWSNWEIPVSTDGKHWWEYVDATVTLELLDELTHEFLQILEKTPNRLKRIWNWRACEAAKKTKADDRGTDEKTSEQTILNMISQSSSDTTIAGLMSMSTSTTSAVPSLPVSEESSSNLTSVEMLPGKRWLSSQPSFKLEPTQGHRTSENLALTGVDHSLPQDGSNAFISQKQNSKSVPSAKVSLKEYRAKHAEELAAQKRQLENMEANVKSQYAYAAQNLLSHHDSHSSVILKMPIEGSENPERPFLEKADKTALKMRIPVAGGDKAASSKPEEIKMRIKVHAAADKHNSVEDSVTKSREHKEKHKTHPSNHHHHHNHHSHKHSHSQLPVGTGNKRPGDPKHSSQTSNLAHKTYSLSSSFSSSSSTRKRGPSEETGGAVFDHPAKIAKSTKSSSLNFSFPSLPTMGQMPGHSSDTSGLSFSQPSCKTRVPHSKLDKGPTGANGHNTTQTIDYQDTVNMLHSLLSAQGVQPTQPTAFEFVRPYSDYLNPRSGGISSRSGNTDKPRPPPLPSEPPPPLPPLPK
# T1 sequence (Q96SW2 whole entry): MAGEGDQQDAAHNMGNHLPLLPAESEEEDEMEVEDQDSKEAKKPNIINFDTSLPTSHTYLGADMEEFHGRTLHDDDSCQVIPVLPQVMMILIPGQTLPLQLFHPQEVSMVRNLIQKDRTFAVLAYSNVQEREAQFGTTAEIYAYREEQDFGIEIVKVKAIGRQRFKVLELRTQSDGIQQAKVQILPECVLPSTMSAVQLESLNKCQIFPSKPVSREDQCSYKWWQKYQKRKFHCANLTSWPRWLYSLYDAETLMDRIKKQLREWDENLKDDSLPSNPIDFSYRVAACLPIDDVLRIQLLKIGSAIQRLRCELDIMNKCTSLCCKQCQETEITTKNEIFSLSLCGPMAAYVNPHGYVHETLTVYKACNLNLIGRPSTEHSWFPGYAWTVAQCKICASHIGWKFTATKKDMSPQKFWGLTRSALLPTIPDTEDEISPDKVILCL
# T1 sequence (Q16531 whole entry partner): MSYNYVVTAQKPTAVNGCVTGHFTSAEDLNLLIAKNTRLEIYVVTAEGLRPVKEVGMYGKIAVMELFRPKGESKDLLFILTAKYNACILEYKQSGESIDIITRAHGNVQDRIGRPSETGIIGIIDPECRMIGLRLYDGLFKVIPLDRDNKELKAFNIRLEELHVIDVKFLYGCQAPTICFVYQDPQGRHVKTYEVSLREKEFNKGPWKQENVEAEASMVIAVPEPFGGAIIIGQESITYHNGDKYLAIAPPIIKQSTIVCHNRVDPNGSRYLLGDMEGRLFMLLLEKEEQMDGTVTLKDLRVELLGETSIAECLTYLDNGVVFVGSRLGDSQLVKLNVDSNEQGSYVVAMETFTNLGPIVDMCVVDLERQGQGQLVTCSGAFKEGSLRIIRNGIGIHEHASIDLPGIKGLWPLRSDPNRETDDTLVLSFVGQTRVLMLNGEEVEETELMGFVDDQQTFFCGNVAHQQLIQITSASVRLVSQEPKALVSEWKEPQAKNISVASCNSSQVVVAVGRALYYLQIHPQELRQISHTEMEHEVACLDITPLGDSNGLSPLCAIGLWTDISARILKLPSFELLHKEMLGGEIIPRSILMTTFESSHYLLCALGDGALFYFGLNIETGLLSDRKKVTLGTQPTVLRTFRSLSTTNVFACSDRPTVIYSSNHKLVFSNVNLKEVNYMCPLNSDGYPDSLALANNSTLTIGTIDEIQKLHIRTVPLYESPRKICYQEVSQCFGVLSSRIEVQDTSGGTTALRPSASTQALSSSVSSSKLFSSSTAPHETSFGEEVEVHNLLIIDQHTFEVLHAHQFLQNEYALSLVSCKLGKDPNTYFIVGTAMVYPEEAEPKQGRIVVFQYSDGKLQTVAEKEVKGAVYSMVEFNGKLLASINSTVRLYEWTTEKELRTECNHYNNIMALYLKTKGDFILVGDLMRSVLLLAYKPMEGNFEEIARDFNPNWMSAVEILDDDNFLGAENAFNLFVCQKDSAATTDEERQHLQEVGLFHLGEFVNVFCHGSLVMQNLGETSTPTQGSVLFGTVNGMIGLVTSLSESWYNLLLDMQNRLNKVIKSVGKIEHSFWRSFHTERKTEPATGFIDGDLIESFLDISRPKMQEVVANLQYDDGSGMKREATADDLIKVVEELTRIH
Compound,DC50 (CDK9 [2]),Dmax (%) (CDK9 [2]),logk′80 [3],Solubility [4],Dmax (CDK9 [2]),solubility at 1.5 h (Kinetic solubility assay),"pIC50 (MV411 cells [1]; defined as log(nM IC50), MV411)",IC50 (MV411 cells [1]; [10]),IC50 (MV411 cells [1]; [11]),IC50 (MV411 cells [1]; [12]),retention of potency after drug washout (AML cells),also measured
"O=C1CCC(N2C(=O)c3cccc(OCCCn4cc(CCCCN5CCC(NC(=O)c6n[nH]cc6NC(=O)c6c(Cl)cccc6Cl)CC5)nn4)c3C2=O)C(=O)N1 (stereo not drawn) [Compound 4.7b, 4-(2,6-dichlorobenzamido)-N-(1-(4-(1-(3-((2-(2,6-dioxopiperidin-3-yl)-1,3-dioxoisoindolin-4-yl)oxy)propyl)-1H-1,2,3-triazol-4-yl)butyl)piperidin-4-yl)-1H-pyrazole-3-carboxamide]",69.2 nM,–,0.084,–,79.1%,40 µM,–,–,200 nM,190 nM,–,improvement in cytotoxicity in human serum versus FBS (MV411 cells [5]): ~3 fold; in vivo CDK9 degradation (CDK9 [6]): not observed; Solubility (Kinetic solubility assay): 40.9 µM
"O=C1CCC(N2C(=O)c3cccc(OCCCn4cc(CCCCCN5CCC(NC(=O)c6n[nH]cc6NC(=O)c6c(Cl)cccc6Cl)CC5)nn4)c3C2=O)C(=O)N1 (stereo not drawn) [Compound 4.7c, 4-(2,6-dichlorobenzamido)-N-(1-(5-(1-(3-((2-(2,6-dioxopiperidin-3-yl)-1,3-dioxoisoindolin-4-yl)oxy)propyl)-11H-1,2,3-triazol-4-yl)pentyl)piperidin-4-yl)-1H-pyrazole-3-carboxamide]",404 nM,58.6%,0.106,31.3 µM,–,–,2.3,194 nM,–,–,–,–
"O=C1CCC(N2C(=O)c3cccc(OCCCCn4cc(CCCCCN5CCC(NC(=O)c6n[nH]cc6NC(=O)c6c(Cl)cccc6Cl)CC5)nn4)c3C2=O)C(=O)N1 (stereo not drawn) [Compound 4.8b, 4-(2,6-dichlorobenzamido)-N-(1-(5-(1-(4-((2-(2,6-dioxopiperidin-3-yl)-1,3-dioxoisoindolin-4-yl)oxy)butyl)-1H-1,2,3-triazol-4-yl)pentyl)piperidin-4-yl)-1H-pyrazole-3-carboxanmide]",951 nM,68.5%,0.112,13.2 µM,–,–,2.1,130 nM,–,–,–,–
O=C1CCC(N2C(=O)c3cccc(OCCCCCCn4cc(CCCCCCCN5CCC(NC(=O)c6n[nH]cc6NC(=O)c6c(Cl)cccc6Cl)CC5)nn4)c3C2=O)C(=O)N1 (stereo not drawn) [Compound 4.9b],61.4 nM,78.0%,0.176,4.70 µM,–,–,1.8,63.3 nM,–,–,retain their potency,–
"O=C1CCC(N2C(=O)c3cccc(OCCCn4cc(CCCCCCCCCCN5CCC(NC(=O)c6n[nH]cc6NC(=O)c6c(Cl)cccc6Cl)CC5)nn4)c3C2=O)C(=O)N1 (stereo not drawn) [Compound 4.9c, 4-(2,6-dichlorobenzamido)-N-(1-(10-(1-(3-((2-(2,6-dioxopiperidin-3-yl)-1,3-dioxoisoindolin-4-yl)oxy)propyl)-1H-1,2,3-triazol-4-yl)decyl)piperidin-4-yl)-1H-pyrazole-3-carboxamide]",44.8 nM,–,0.197,–,88.6%,3.42 µM,–,–,7.94 nM,8.8 nM,retain their potency,improvement in cytotoxicity over constitutional isomers (MV411 cells [1]; within isomer set): ~10 fold; minimum difference in log k′80 to constitutional isomers [3]: 0.013; loss of potency in human serum versus FBS (MV411 cells [5]): 3 fold
"COc1cc(F)ccc1-c1cc(Nc2cc(CS(C)(=O)=NC(=O)CN3CCC(CN4CCC(COc5cccc6c5C(=O)N(C5CCC(=O)NC5=O)C6=O)CC4)CC3)ccn2)ncc1F (stereo not drawn) [Compound 4.78, 2-(4-{[4-({[2-(2,6-dioxopiperidin-3-yl)-1,3-dioxo-2,3-dihydro-1H-isoindol-4-yl]-oxy}methyl)piperidin-1-yl]methyl}piperidin-1-yl)-N-{[(2-{[5-fluoro-4-(4-fluoro-2-methoxyphenyl)pyridin-2-yl]amino}pyridin-4-yl)methyl](methyl)oxo-λ^6-sulfanylidene}acetamide]",–,–,0.18,–,–,28.9 µM,–,–,–,–,–,"IC50 (MOLM13 cells [7]): 410 nM; DC50 (CDK9 [8]): 820 nM; IC50 (MOLM13 cells [9]; Homo sapiens, MOLM13, fetal bovine serum, read-out: IC50 (μM) FBS): 0.52 µM; IC50 (MOLM13 cells [9]; MOLM13, human serum, read-out: IC50 (μM) HS): 0.49 µM"

# More lines, in order of falling DC50 (CDK9 [2]), values ahead:
DC50 (CDK9 [2]),Dmax (%) (CDK9 [2]),logk′80 [3],Solubility [4],Dmax (CDK9 [2]),solubility at 1.5 h (Kinetic solubility assay),Compound,"pIC50 (MV411 cells [1]; defined as log(nM IC50), MV411)",IC50 (MV411 cells [1]; [10]),IC50 (MV411 cells [1]; [11]),IC50 (MV411 cells [1]; [12]),retention of potency after drug washout (AML cells),also measured
130 nM,67.5%,0.100,12.4 µM,–,–,"O=C1CCC(N2C(=O)c3cccc(OCCCCn4cc(CCCCN5CCC(NC(=O)c6n[nH]cc6NC(=O)c6c(Cl)cccc6Cl)CC5)nn4)c3C2=O)C(=O)N1 (stereo not drawn) [Compound 4.7a, 4-(2,6-dichlorobenzamido)-N-(1-(4-(1-(4-((2-(2,6-dioxopiperidin-3-yl)-1,3-dioxoisoindolin-4-yl)oxy)buty)-1H-1,2,3-triazol-4-yl)butyl)piperidin-4-yl)-1H-pyrazole-3-carboxamide]",2.4,241 nM,–,–,–,–
99.9 nM,–,0.140,–,70.1%,5.46 µM,"O=C1CCC(N2C(=O)c3cccc(OCCCCCCn4cc(CCCCCN5CCC(NC(=O)c6n[nH]cc6NC(=O)c6c(Cl)cccc6Cl)CC5)nn4)c3C2=O)C(=O)N1 (stereo not drawn) [Compound 4.10, 4-(2,6-dichlorobenzamido)-N-(1-(5-(1-(6-((2-(2,6-dioxopiperidin-3-yl)-1,3-dioxoisoindolin-4-yl)oxy)hexyl)-1H-1,2,3-triazol-4-yl)pentyl)piperidin-4-yl)-1H-pyrazole-3-carboxamide]",–,–,50.1 nM,46.6 nM,retain their potency,improvement in cytotoxicity over 4.3 (MV411 cells [1]; 4.10 versus 4.3): over 5 fold
60.1 nM,–,0.146,–,88.3%,5.65 µM,"O=C1CCC(N2C(=O)c3cccc(OCCCCCCCn4cc(CCN5CCC(NC(=O)c6n[nH]cc6NC(=O)c6c(Cl)cccc6Cl)CC5)nn4)c3C2=O)C(=O)N1 (stereo not drawn) [Compound 4.8a, 4-(2,6-dichlorobenzamido)-N-(1-(2-(1-(7-((2-(2,6-dioxopiperidin-3-yl)-1,3-dioxoisoindolin-4-yl)oxy)heptyl)-1H-1,2,3-triazol-4-yl)ethyl)piperidin-4-yl)-1H-pyrazole-3-carboxamide]",–,–,50.1 nM,46.9 nM,–,minimum difference in log k′80 to constitutional isomers [3]: 0.030; loss of potency in human serum versus FBS (MV411 cells [5]): ~20 fold
